Source: article PMC7074381, “Investigating the Antiparasitic Potential of the Marine Sesquiterpene Avarone, Its Reduced Form Avarol, and the Novel Semisynthetic Thiazinoquinone Analogue Thiazoavarone” (Marine Drugs, 2020)
Like-named read-outs stand apart in the source and are kept apart here.

Assays:
[1] = test system: S. mansoni in vitro laid eggs (IVLEs); test: in vitro laid eggs (IVLEs) maturation/morphology assay; assay type: cell-based; details: 72 h
Source text: (§1) A Puerto Rican strain of S. mansoni was maintained by passage through albino Biomphalaria glabrata, as the intermediate host, and ICR (CD-1) outbred female mice as previously described. Female 4 to 7-week-old mice (Envigo, Udine, Italy) were infected with 200–400 double sex S. mansoni cercariae by the tail immersion technique. Adult pairs were harvested from mice 7–8 weeks after infection by reversed perfusion of the hepatic portal system and mesenteric veins. For the viability assays, 5 couples were incubated with the compounds in 3 mL DMEM complete tissue culture medium containing 10% FBS for up to 7 days and phenotypic score was assigned as previously described. For egg-treatment, 5 worm pairs were incubated for 48 h in 3 mL complete tissue culture medium; next the parasites were removed and vehicle (DMSO) or compounds 1–3 were added to each plate containing the eggs previously laid in vitro and observed for 72 h as previously reported. Briefly, images were recorded with a BX41 Olympus microscope and a bright field objective 10× served by a SPOT RT 220-3 Diagnostic Instrument Inc camera. Egg maturation/morphological score was assigned based on the Vogel and Prata’ staging system of egg maturation.

[2] = test system: L. infantum promastigotes (strain MHOM/TN/80/IPT1); test: promastigote susceptibility MTT assay, L. infantum; assay type: cell-based; details: for IC50: Leishmania infantum, promastigote stage, 72 h, MTT, mean ± SD of three experiments; for SIp (L. infantum): SIp = IC50 HMEC-1/IC50 L. infantum promastigotes
Experimental: (§2) Promastigote stage of L. infantum strain MHOM/TN/80/IPT1 and L. tropica (MHOM/IT/2012/ISS3130) were cultured in Schneider’s Drosophila medium (Lonza) supplemented with 10% heat-inactivated fetal calf serum (HyClone) at 24 °C.
(§3) The complete medium used for antileishmanial activity assay was RPMI (EuroClone) supplemented with 10% heat-inactivated fetal calf serum (EuroClone), 20 mM Hepes, and 2 mM L-glutamine. To estimate the 50% inhibitory concentration (IC50), the MTT (3-[4.5-dimethylthiazol-2-yl]-2.5-diphenyltetrazolium bromide) method was used. Compounds were dissolved in DMSO and then diluted with medium to achieve the required concentrations. Drugs were placed in 96-well round-bottom microplates and seven serial dilutions made. Amphotericin B was used as the reference anti-leishmanial drug. Parasites were diluted in complete medium to 5 × 10^6 parasites/mL and 100 μL of the suspension was seeded into the plates, incubated at 24 °C for 72 h and then 20 µL of MTT solution (5 mg/mL) was added into each well for 3 h. The plates were then centrifuged, the supernatants discarded and the resulting pellets dissolved in 100 µL of lysing buffer consisting of 20% (w/v) of a solution of SDS (Sigma), 40% of N,N-dimethylformamide (Merck) in H2O. The absorbance was measured spectrophotometrically at a test wavelength of 550 nm and a reference wavelength of 650 nm. The results are expressed as IC50 which is the dose of compound necessary to inhibit parasite growth by 50%; each IC50 value is the mean ± standard deviation of separate experiments performed in duplicate.

[3] = test system: P. falciparum W2 (CQ-resistant) strain; test: antiplasmodial pLDH drug susceptibility assay, asexual parasites, W2 strain; assay type: cell-based; details: for IC50: Plasmodium falciparum, read-out: W2 IC50; for SI W2: SI = IC50 HMEC-1/IC50 P. falciparum W2
Experimental: (§4) P. falciparum cultures were carried out according to Trager and Jensen with slight modifications. The CQ-sensitive strain D10 and the CQ-resistant strain W2 were maintained at 5% hematocrit (human type A-positive red blood cells) in RPMI 1640 (EuroClone, Celbio) medium with the addition of 1% AlbuMax (Invitrogen, Milan, Italy), 0.01% hypoxanthine, 20 mM Hepes, and 2 mM glutamine at 37 °C in a standard gas mixture (1% O2, 5% CO2, and 94% N2). […] Drugs were placed in 96-well flat-bottomed microplates and serial dilutions made. Asynchronous cultures with parasitaemia of 1%–1.5% and 1% final hematocrit were aliquoted into the plates and incubated for 72 h at 37 °C. Parasite growth was determined spectrophotometrically (OD650) by measuring the activity of the parasite lactate dehydrogenase (pLDH), according to a modified version of the method of Makler in control and drug-treated cultures. The antiplasmodial activity is expressed as 50% inhibitory concentrations (IC50); each IC50 value is the mean ± standard deviation of at least three separate experiments performed in duplicate.

[4] = test system: L. tropica promastigotes (MHOM/IT/2012/ISS3130); test: promastigote susceptibility MTT assay, L. tropica; assay type: cell-based; details: for IC50: Leishmania tropica, promastigote stage, 72 h, MTT, mean ± SD of three experiments; for SIp (L. tropica): SIp = IC50 HMEC-1/IC50 L. tropica promastigotes
Experimental: as §2, §3

L. infantum amastigotes = test: intracellular amastigote susceptibility assay in THP-1 macrophages; assay type: cell-based; details: for IC50: Leishmania infantum, intracellular amastigotes in THP-1 macrophages, 72 h, mean of two experiments in triplicate; for SIa: SIa = IC50 HMEC-1/IC50 L. infantum amastigotes
Experimental: Cells were washed and infected with metacyclic L. infantum promastigotes at a macrophage/promastigote ratio of 1/10 for 24 h. Cell monolayers were then washed and incubated in the presence of test compounds for 72 h. Slides were fixed with methanol and stained with Giemsa. The percentage of infected macrophages in treated and non-treated cells was determined by light microscopy.

[5] = test system: S. mansoni adult worm pairs; test: adult worm pair viability assay (phenotypic score); assay type: cell-based; details: 20 μM, 7 days
Source text: as §1

[6] = test system: Pf gametocytes stage V 3D7elo1-pfs16-CBG99; test: gametocyte susceptibility assay (luciferase viability); assay type: cell-based, P. falciparum; details: Plasmodium falciparum, 72 h, mean ± SD of three experiments
Experimental: The transgenic P. falciparum 3D7 strain 3D7elo1-pfs16-CBG99 expressing the Pyrophorus plagiophthalamus CBG99 luciferase under a gametocyte specific promoter was used in all the experiments. Parasites were cultured and gametocytes obtained as previously described. Late-stage gametocytes were exposed to compounds at day 11 after N-acetylglucosamine (NAG) addition. Gametocytes stages were counted in Giemsa stained smears and the percentage of stage V gametocytes was higher than 80%. Compounds were prepared by serial dilution, in 96-well plate, in complete medium. Plates were incubated for 72 h at 37 °C under 1% O2, 5% CO2, 94% N2 atmosphere. Luciferase activity was taken as measure of gametocytes viability, as previously described. Briefly, drug-treated gametocyte samples at 2% haematocrit were transferred to 96-well black microplates and D-luciferin (1 mM in citrate buffer 0.1 M, pH 5.5) was added at a 1:1 volume ratio. Luminescence measurements were performed after 10 min with 500 ms integration time using a Sinergy 4 (Biotek) microplate reader. The IC50 was extrapolated from the non-linear regression analysis of the concentration–response curve.

[7] = test system: HMEC-1 (human microvascular endothelial cells); test: cytotoxicity MTT assay on HMEC-1; assay type: cell-based; details: mean ± SD of three experiments in duplicate
Experimental: (§5) The long-term human microvascular endothelial cell line (HMEC-1) was maintained in MCDB 131 medium (Invitrogen, Milan, Italy) supplemented with 10% fetal calf serum (HyClone, Celbio, Milan, Italy), 10 ng/mL of epidermal growth factor,1 µg/ml of hydrocortisone, 2 mM glutamine and 20 mM Hepes buffer (EuroClone). For the cytotoxicity assays, HMEC-1 were plated at 10^5 cells/mL in 96-well flat bottom microplates. THP-1 cells were plated at 5 × 10^5 cells/mL in 96-well flat bottom microplates and treated with 0.1 μM PMA for 48 h to achieve differentiation into macrophages. Cells were then treated with serial dilutions of test compounds and cell proliferation evaluated using the MTT assay described for promastigotes. The results are expressed as IC50, which is the dose of compound necessary to inhibit cell growth by 50%.

[8] = test system: P. falciparum D10 (CQ-sensitive) strain; test: antiplasmodial pLDH drug susceptibility assay, asexual parasites, D10 strain; assay type: cell-based; details: for IC50: Plasmodium falciparum, read-out: D10 IC50; for SI D10: SI = IC50 HMEC-1/IC50 P. falciparum D10
Experimental: as §4

[9] = test system: THP-1 (human acute monocytic leukemia cells); test: cytotoxicity MTT assay on THP-1 differentiated into macrophages; assay type: cell-based; details: PMA-differentiated macrophages, mean of two experiments in duplicate
Experimental: as §5

[10] = asexual parasites, CQ-resistant W2 strain, 72 h, pLDH, mean ± SD of three experiments in duplicate
[11] = asexual parasites, CQ-sensitive D10 strain, 72 h, pLDH, mean ± SD of three experiments in duplicate

SMILES | effect on egg maturation (IVLEs) ([1]; 5 μM) | effect on egg maturation (IVLEs) ([1]; 20 μM) | IC50 [2] | SIp (L. infantum) [2] | IC50 [3, 10] | SI W2 [3] | IC50 [4] | SIp (L. tropica) [4] | IC50 (L. infantum amastigotes) | SIa (L. infantum amastigotes) | effect on adult stage viability [5] | IC50 [6] | IC50 [7] | IC50 [8, 11] | SI D10 [8] | IC50 [9] | IC50 ([3]; W2, 72 h) | IC50 ([8]; D10, 72 h) | SIa (L. infantum amastigotes; listed as avarol 3) | survival of adult worm pairs [5]
CC1=CCC[C@H]2[C@](C)(CC3=CC(=O)C4=C(C3=O)S(=O)(=O)CCN4)[C@@H](C)CC[C@]12C [Thiazoavarone (2), thiazoavarone] | impairing eggs maturation | undeveloped and severely damaged eggs | 8.78 ± 0.26 µM | 0.38 | 0.21 ± 0.03 µM | 15.8 | 9.52 ± 0.32 µM | 0.35 | 4.99 µM | 0.67 | poorly effective | 15 ± 3.19 µM | 3.31 ± 1.53 µM | 0.38 ± 0.15 µM | 8.7 | 7.41 µM | – | – | – | –
CC[C@@]1(O)C(=O)OCc2c1cc1n(c2=O)Cc2cc3ccccc3nc2-1 [Camptothecin, reference compound] | – | – | – | – | – | – | – | – | – | – | – | – | 0.018 µM | – | – | – | – | – | – | –
CCN(CC)CCCC(C)Nc1ccnc2cc(Cl)ccc12 (stereo not drawn) [Chloroquine (CQ), Chloroquine, reference compound] | – | – | – | – | – | – | – | – | – | – | – | – | – | – | – | – | 0.54 µM | 0.04 µM | – | –
CC1=CCC[C@H]2[C@](C)(CC3=CC(=O)C=CC3=O)[C@@H](C)CC[C@]12C [Avarone (1), avarone] | – | – | 28.2 ± 0.32 µM | 2.2 | 2.09 ± 0.52 µM | 29.8 | 20.3 ± 3.56 µM | 3.1 | 7.64 µM | 8.1 | – | 15.5 ± 5.26 µM | 62.2 ± 1.98 µM | 2.74 ± 0.51 µM | 22.7 | > 100 µM | – | – | – | –
CN(C)c1ccc2nc3ccc(=[N+](C)C)cc-3sc2c1 [Methylene blue, reference compound] | – | – | – | – | – | – | – | – | – | – | – | 0.155 ± 0.05 µM | – | – | – | – | – | – | – | –
CC1=CCC[C@H]2[C@](C)(Cc3cc(O)ccc3O)[C@@H](C)CC[C@]12C [Avarol (3), avarol] | – | – | 7.42 ± 0.27 µM | 5.0 | 1.1 ± 0.15 µM | 33.5 | 7.08 ± 1.91 µM | 5.2 | 3.19 µM | 11.6 | – | 9.3 ± 1.9 µM | 36.9 ± 5.79 µM | 0.96 ± 0.24 µM | 38.4 | 31.8 µM | – | – | greater than 10 | 20%
C[C@@H]1[C@H](O)[C@@H](C)/C=C/C=C/C=C/C=C/C=C/C=C/C=C/[C@H](O[C@@H]2O[C@H](C)[C@@H](O)[C@H](N)[C@@H]2O)C[C@@H]2O[C@](O)(C[C@@H](O)C[C@@H](O)[C@H](O)CC[C@@H](O)C[C@@H](O)CC(=O)O[C@H]1C)C[C@H](O)[C@H]2C(=O)O [Amphotericin B, reference compound] | – | – | 0.2 ± 0.03 µM | – | – | – | 0.17 ± 0.04 µM | – | 0.189 µM | – | – | – | – | – | – | – | – | – | – | –
